For one assay, the system named is HAEC monolayers. The assay is described as follows: Monocyte adhesion assay. The format is cell-based, human. The settings on record: LDL 250 μg pre-incubated with agent 4 hrs, re-isolated. The method, then: In brief, HAEC monolayers, in 48-well tissue culture plates were incubated with the desired LDL or phospholipid for 4 hrs at 37° C. as described (Watson et al. (1995) J. Clin. Invest. 96: 2882-2891). After washing, a suspension of human peripheral blood monocytes was added and incubated for 10 min. The loosely adherent monocytes were then washed away, the monolayers were fixed and the number of adherent monocytes counted in 9 high power microscopic fields.
Freshly isolated LDL (250 μg) was incubated with pure 13(S)-HPODE (1.0 μg) in 10% LPDS in M 199 for 4 hrs at 37° C. with gentle mixing. LDL was re-isolated by centrifugation and was incubated with monolayers of human aortic endothelial cells. […] The endothelial monolayer was washed after each time point and a monocyte suspension was added, incubated, washed, and the number of adherent monocytes determined.
Freshly isolated LDL (250 μg) was incubated with 10 units of pure soybean lipoxygenase bound to sepharose beads for 4 hrs at 37° C. with gentle mixing. […] The endothelial monolayer was washed after each time point and monocyte adhesion determined.
Blood samples were collected from patients referred to the cardiac catheterization laboratory at The Center for Health Sciences at the University of California, Los Angeles. […] The HDL-Ox-PAPC mixture was then added to endothelial monolayers and monocyte binding was determined.

Assay [1] can be described thus: Non-enzymatic formation of cholesteryl linoleate hydroperoxide (RP-HPLC). The settings on record: 0.5 μg/ml with cholesteryl linoleate 10 μg/ml, air oxidation 6 hrs. The method, then:
[…] 0.5 μg/ml (Panel A) or cholesteryl linoleate 10 μg/ml (Panel B) or cholesteryl linoleate 10 μg/ml together with 13(S) HPODE 0.5 μg/ml (Panel C) in chloroform/methanol (2:1, v/v) containing 0.01% BHT was briefly swirled to mix and evaporated to dryness under argon and allowed to undergo air oxidation in a laminar flow hood for 6 hrs. The lipids were solubilized in 50 μl of chloroform and analyzed for the presence of cholesteryl linoleate hydroperoxide (Ch18:2-OOH) by RP-HPLC as described herein.
Fast performance liquid chromatography (FPLC) and reverse phase high performance liquid chromatography ([…]) were performed as described in example 1. For the detection of cholesteryl linoleate hydroperoxide an Alltech Alltima 250×4.6 mm, 5 micron RP-HPLC C18 column was used to separate and detect cholesteryl linoleate hydroperoxide at 234 nm and cholesteryl linoleate at 205 nm. The mobile solvent consisted of acetonitrile/2-propanol/water (44:54:2, v/v/v) at 1.0 ml/min. Lipids were resuspended in the mobile solvent for injection.

Assay [2] is described as follows: Non-enzymatic oxidation of PAPC to POVPC, PGPC, PEIPC (ESI-MS). The settings on record: for amount that significantly decreased PAPC and increased the three oxidized phospholipids: added to 10 μg of PAPC for 8 hours.
For assay [3], the system named is human aortic endothelial cells. Put plainly: Lipid hydroperoxide formation when treated LDL is added to HAEC. In kind it is cell-based. The settings on record: LDL 250 μg pre-incubated with agent 4 hrs, re-isolated. The method, then:
Freshly isolated LDL (250 μg) was incubated with pure 13(S)-HPODE (1.0 μg) in 10% LPDS in M 199 for 4 hrs at 37° C. with gentle mixing. LDL was re-isolated by centrifugation and was incubated with monolayers of human aortic endothelial cells. Supernatants were removed at time points ranging from zero to 5 hours and were assayed for lipid hydroperoxide content. The endothelial monolayer was washed after each time point and a monocyte suspension was added, incubated, washed, and the number of adherent monocytes determined.
Freshly isolated LDL (250 μg) was incubated with 10 units of pure soybean lipoxygenase bound to sepharose beads for 4 hrs at 37° C. with gentle mixing. LDL was re-isolated by centrifugation and incubated with monolayers of HAEC. Supernatants were removed at time points ranging from zero to 4 hours and were assayed for lipid hydroperoxide content. The endothelial monolayer was washed after each time point and monocyte adhesion determined.
(§1) Statistical significance was determined by model 1 ANOVA. […] Significance is defined as p<0.05.

In assay [4] the test system is human artery wall cell cocultures. The assay is described as follows: LDL oxidation by human artery wall cell cocultures (lipid hydroperoxides). In kind it is cell-based. The settings on record: for reduction in lipid hydroperoxide levels: cocultures preincubated with inhibitor 1×10^−8 mol/L before addition of LDL 250 μg/ml, 8 hrs; for oxidation of LDL by fatty acid pretreated artery wall cells: cocultures 18 hours with 100 μM fatty acid, washed, then LDL 250 μg/ml; for ability of pretreated artery wall cocultures to oxidize LDL: cocultures incubated 8 hrs with agent, agent removed before LDL 250 μg/ml. The method, then: (§2) The wells of the microtiter plates were treated with 0.1% gelatin at 37° C. overnight. HASMC were added at a confluent density of 1×10^5 cells/cm^2. Cells were cultured for 2 d at which time they had covered the entire surface of the well and had produced a substantial amount of extracellular matrix. HAEC were subsequently added at 2×10^5 cells/cm^2 and were allowed to grow forming a complete monolayer of confluent HAEC in 2 d. In all experiments, HAEC and autologous HASMC (from the same donor) were used at passage levels of four to six.
(§3) In general, the cocultures were treated with native LDL (250 μg/ml) in the absence or presence of HDL for 8 h. The supernatants were collected and used for determination of lipid hydroperoxide levels. The cocultures were subsequently washed and fresh culture medium 199 (M199) without any additions was added and incubated for an additional 8 hrs. This allowed the collection of monocyte chemotactic activity released by the cells as a result of stimulation by the oxidized LDL. At the end of incubation, the supernatants were collected from cocultures, diluted 40-fold, and assayed for monocyte chemotactic activity. Briefly, the supernatant was added to a standard Neuroprobe chamber (NeuroProbe, Cabin John, Md.), with monocytes added to the top. The chamber was incubated for 60 min at 37° C. After the incubation, the chamber was disassembled and the nonmigrated monocytes were wiped off. The membrane was then air dried and fixed with 1% glutaraldehyde and stained with 0.1% Crystal Violet dye. The number of migrated monocytes was determined microscopically and expressed as the mean±SD of 12 standardized high power fields counted in quadruple wells.
as §1
Human artery wall cocultures were preincubated with ETYA at a concentration of 10^−8 mol/L or with cinnamyl-3,4-dihydroxy-α-cyanocynamate (CDC, from Biomol) at a concentration of 10^−8 mol/L in M199 containing 10% LPDS for 30 min. The cocultures were then washed and LDL was added at 250 μg/ml and incubated for 8 hrs.

Assay [5] has the same test system. Put plainly: Monocyte chemotaxis assay on coculture conditioned medium. In kind it is cell-based. The settings on record: for decrease in LDL-induced monocyte chemotactic activity: cocultures preincubated with inhibitor 1×10^−8 mol/L before addition of LDL 250 μg/ml; for LDL-induced monocyte chemotaxis in fatty acid pretreated cocultures: cocultures 18 hours with 100 μM fatty acid, washed, then LDL; for LDL-induced monocyte chemotaxis in pretreated cocultures: cocultures incubated 8 hrs with agent, agent removed before LDL. The method, then: as §2
Monocytes were isolated using a modification of the Recalde method as previously described (Fogelman et al. (1988) J. Lipid Res. 29: 1243-1247) from the blood of normal volunteers after obtaining written consent under a protocol approved by the human research subject protection committee of the University of California, Los Angeles.
as §3

The test system is the same in assay [6]. The assay is described as follows: Hydroperoxide content of apo A-I lipid extract from fatty acid treated cocultures. In kind it is cell-based. The settings on record: cocultures with or without C18:2, then apo A-I 100 μg/ml 3 hrs. The procedure:
The medium was removed and the cultures washed three times. Fresh medium without fatty acids was added and the cultures were incubated at 37° C. for an additional 3 hrs. […] at 250 μg/ml was then added to one set of the cocultures in M199 containing 10% LPDS and incubated for 8 hrs. The medium was then removed and lipid hydroperoxides (Panel A) and monocyte chemotactic activity (Panel B) determined. To the second set of cocultures (Panel C) apo A-I was added at 100 μg/ml and incubated for three more hours with gentle mixing at 37° C. […] Values are mean±SD of triplicate determinations. The asterisks denote p<0.001. […] (1991) Drug Metab. Dispos. 19: 100-106). Statistical significance was determined by model 1 ANOVA. […] Significance is defined as p<0.05.

A further assay has as its system paraoxonase. The settings on record: mice, six hours after injection.

On to `CCCCC[C@@H](/C=C/C=C\CCCCCCCC(=O)O)OO` [13(S)-HPODE, 13(S)-hydroperoxyoctadecadienoic acid], for which the “monocyte adherence to HAEC induced by treated LDL” value in the assay on HAEC monolayers is listed as “increased monocyte adherence to HAEC”. Also, the “non-enzymatic formation of cholesteryl linoleate hydroperoxide (Ch18:2-OOH)” value in assay [1] is “markedly stimulated the non-enzymatic formation of cholesteryl linoleate hydroperoxide”. Moreover, in assay [2], the “ability to oxidize PAPC on a molar basis relative to hydrogen peroxide” value is recorded as “more than two orders of magnitude greater”; the “amount that significantly decreased PAPC and increased the three oxidized phospholipids” value was 0.5 µg. Further, in assay [2] (1.0 μg added to 10 μg PAPC, air oxidation), the “formation of POVPC, PGPC, PEIPC from PAPC as a function of time” value is listed as “enhanced the formation of the three biologically active oxidized phospholipids at each time point sampled”. Moreover, the “formation of lipid hydroperoxides when treated LDL added to HAEC” value in assay [3] is on record as “increased the formation of lipid hydroperoxides”.
Consider `CCCCC[C@@H](/C=C/C=C\C/C=C\C/C=C\CCCC(=O)O)OO` [15(S)-HPETE, 15(S)-hydroperoxyeicosatetraenoic acid], for which, in assay [2], the “ability to oxidize PAPC on a molar basis relative to hydrogen peroxide” value was “more than two orders of magnitude greater”; the “amount that significantly decreased PAPC and increased the three oxidized phospholipids” value stood at 0.5 µg.
`N#CC(=Cc1ccc(O)c(O)c1)C(=O)OCC=Cc1ccccc1` [CDC, cinnamyl-3,4-dihydroxy-α-cyanocynamate]: the “reduction in lipid hydroperoxide levels” value in assay [4] was found to be 73±6%. For the same compound, the “decrease in LDL-induced monocyte chemotactic activity” value in assay [5] was found to be 74±11%.
For `CCCCCC#CCC#CCC#CCC#CCCCC(=O)O` [ETYA, 5,8,11,14-eicosatetraynoic acid] the same measures were 80±7% and 75±10%.
For the compound `CCCCC/C=C\C/C=C\C/C=C\C/C=C\CCCC(=O)O` [arachidonic acid], the “oxidation of LDL by fatty acid pretreated artery wall cells” value (shortened to “oxidation of LDL”) in assay [4] is “even more potent than linoleic acid”.
For the compound `OO` [hydrogen peroxide], the “effect on relative abundance of PAPC and formation of oxidized phospholipids” value in assay [2] (2 mM and 4 mM, 10 μg PAPC, 8 hours) is reported as “had no effect”. In assay [2] (8 mM added to 10 μg PAPC for 8 hours), the “effect on relative abundance of PAPC” value is “dramatically decreased the relative abundance of PAPC”.
Take `CCCCC/C=C\C/C=C\CCCCCCCC(=O)O` [linoleic acid]: the “oxidation of LDL” value in assay [4] is on record as “stimulates the oxidation of LDL by artery wall cells”. Besides, in assay [5], the “LDL-induced monocyte chemotaxis in fatty acid pretreated cocultures” value was “stimulates LDL-induced monocyte chemotaxis”. In assay [6], the “13-HPODE equivalents in the lipid extract of apo A-I” value is “dramatically increased the 13-HPODE equivalents”.
On to `CCCCCCCC/C=C\CCCCCCCC(=O)O` [oleic acid], for which the “oxidation of LDL” value in assay [4] is given as “not”. For the same compound, the “LDL-induced monocyte chemotaxis in fatty acid pretreated cocultures” value in assay [5] is “not”.
Take “DWL KAF YDK VAE KLK EAF PDW LKA FYD KVA EKL KEA F (DWLKAFYDKVAEKLKEAFPDWLKAFYDKVAEKLKEAF; Synthetic apo A-I peptide mimetic) [37 pA]”: in assay [4], the “ability of pretreated artery wall cocultures to oxidize LDL” value is reported as “unable to oxidize the added LDL”. Further, the “LDL-induced monocyte chemotaxis in pretreated cocultures” value in assay [5] is reported as “did not induce monocyte chemotaxis”. In addition, the “LDL-induced monocyte chemotactic activity of LDL pre-incubated with the agent” value in assay [5] (human LDL incubated with agent, re-isolated, then cocultures) is on record as “did not induce monocyte chemotactic activity”.
With “apo A-II: Human apo A-II obtained from Sigma”, the “PON activity in plasma and HDL, increase” value in the assay with paraoxonase is “did not change”. For the same compound, the “ability of pretreated artery wall cocultures to oxidize LDL” value in assay [4] is “retained their ability to oxidize LDL”. Also, the “LDL-induced monocyte chemotaxis in pretreated cocultures” value in assay [5] is given as “induce monocyte chemotaxis”.

For the origin of these results see patent publication US7250304B2, “Functional assay of high-density lipoprotein” (The Regents of the University of California, priority 2000, dated 2007).
